Data reported in patent US20230129485A1, “SYSTEM AND METHOD FOR DETERMINING MATERIAL PROPERTIES OF MOLECULAR SYSTEMS FROM AN AB-INITIO PARAMETERIZED FORCE-FIELD” (InterX, Inc., priority 2021, published 2023).
Read-outs that look alike come from different tables or passages of the source.

What was measured:
[1] = Free energy of hydration predicted by General Amber Force Field (GAFF), from literature; details: Table 5; error of GAFF hydration free energy vs experiment
[2] = Free energy of hydration by Free Energy Machine Learning Model (FML); details: absolute error vs Exp (hydration)
From the text: Machine learning models can be used for free energy determination.

[3] = Free energy of hydration by COSMO-RS
In short: (§1)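 The set is limited to molecules shared with the QM-parameterized force field calculations for the SMD, PCM and COSMO-RS models. SMD and PCM predictions came from an outside source, while COSMO solvation free energies were generated in-house with MolPro.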

[4] = Free energy of hydration predicted by polarizable AMOEBA force field, from literature; details: Table 5; error of AMOEBA hydration free energy vs experiment
[5] = experimental, cited from earlier work; for Exp (hydration): Table 5
[6] = experimental, cited from earlier work
[7] = implicit solvent model, values received; cited from earlier work
[8] = Free energy of hydration predicted with the QM-parameterized force field model (ARROW FF), classical MD and PIMD simulation in a water box; details: for Arrow error: Table 5, error of Arrow PIMD8 hydration free energy vs experiment; for Arrow PIMD8 Error: absolute error vs Exp (hydration)
In short: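 Solute decoupled from solvent in a 32×32×32 Å3 water box (PME, 9 Å cutoffs), electrostatics, exchange-repulsion and dispersion switched off together over 15 lambda points with soft-coring. Steepest-descent minimization, 50 ps equilibration, 1 ns NPT production at 1 atm; classical and path-integral MD. Free energy from BAR and TI.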

[9] = implicit solvent model, values received; cited from earlier work; remark: listed apart in the source
[10] = Free energy of hydration by Solvation Model Dielectric (SMD) implicit solvent model; details: absolute error vs Exp (hydration)
In short: as §1

[11] = Free energy of hydration by Polarizable Continuum Model (PCM); details: absolute error vs Exp (hydration)
In short: as §1

[12] = Table 5; free energy of hydration, GAFF prediction taken from literature; cited from earlier work
[13] = Table 5; free energy of hydration, AMOEBA prediction taken from literature; cited from earlier work
[14] = Free energy of hydration by COSMO implicit solvent model (MolPro ver. 2012); details: absolute error vs Exp (hydration)
In short: as §1

[15] = Free energy of solvation in cyclohexane predicted with the QM-parameterized force field model (ARROW FF), MD and PIMD; details: Table 4
In short: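 Solute–cyclohexane interactions decoupled over 15 λ points with soft-core scaling, in MD and path-integral simulations under NPT at 1 atm using PME electrostatics and 9 Å cutoffs. Each window had 50 ps equilibration and 1 ns production; free energies from BAR and TI.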

[16] = Table 3, free energy of hydration
[17] = Table 3, free energy of solvation in cyclohexane
[18] = Table 3, absolute error of MD hydration free energy vs experiment
[19] = Table 3, absolute error of PIMD8 hydration free energy vs experiment

SMILES	GAFF error [1]	FML error [2]	COSMO-RS error [3]	AMOEBA error [4]	water Exp (hydration) [5, 16]	Exp (hydration) ([5]; free energy of hydration)	CHEX Exp (solvation) [6, 17]	PCM free energy of hydration [7]	water Arrow MD Error [8, 18]	water Arrow PIMD8 Error [8, 19]	Arrow error [8]	Arrow PIMD8 Error [8]	SMD free energy of hydration [9]	SMD Error [10]	PCM Error [11]	GAFF [12]	AMOEBA [13]	COSMO/Molpro Error [14]	further results
CC(C)O [2-Propanol]	1.34 kcal/mol	0.29 kcal/mol	0.00 kcal/mol	0.41 kcal/mol	-4.62 kcal/mol	-4.62 kcal/mol	-2.37 kcal/mol	-3.10 kcal/mol	1.26 kcal/mol	0.00 kcal/mol	0.00 kcal/mol	0.00 kcal/mol	-4.30 kcal/mol	0.32 kcal/mol	1.52 kcal/mol	-3.28 kcal/mol	-4.21 kcal/mol		
CCO [Ethanol]	1.56 kcal/mol	0.08 kcal/mol	0.07 kcal/mol	0.32 kcal/mol	-5.01 kcal/mol	-5.01 kcal/mol	-2.59 kcal/mol	-3.10 kcal/mol	0.74 kcal/mol	0.07 kcal/mol	0.07 kcal/mol	0.07 kcal/mol	-4.20 kcal/mol	0.81 kcal/mol	1.91 kcal/mol	-3.45 kcal/mol	-4.69 kcal/mol	1.19 kcal/mol	water Exp (hydration) ([5]; Table 4, neutral amino-acid analogues): -5.01 kcal/mol; CHEX Exp (solvation) ([6]; Table 4, solvation free energy in cyclohexane): -2.59 kcal/mol; water Arrow MD Error ([8]; Table 4, error of MD hydration free energy vs experiment): 0.74 kcal/mol; water Arrow PIMD8 Error ([8]; Table 4, error of PIMD8 hydration free energy vs experiment): 0.07 kcal/mol; CHEX Arrow MD Error ([15]; error of MD cyclohexane solvation free energy vs experiment): 0.05 kcal/mol; CHEX Arrow PIMD4 Error ([15]; error of PIMD4 cyclohexane solvation free energy vs experiment): 0.12 kcal/mol
CCCO [Propanol]	1.80 kcal/mol	0.11 kcal/mol	0.12 kcal/mol	0.07 kcal/mol	-4.92 kcal/mol	-4.92 kcal/mol	-2.73 kcal/mol	-3.10 kcal/mol	0.58 kcal/mol	0.18 kcal/mol	0.18 kcal/mol	0.18 kcal/mol	-4.10 kcal/mol	0.82 kcal/mol	1.82 kcal/mol	-3.12 kcal/mol	-4.85 kcal/mol	1.30 kcal/mol	
c1ccncc1 [pyridine]	1.24 kcal/mol	0.21 kcal/mol	0.73 kcal/mol	0.90 kcal/mol	-4.69 kcal/mol	-4.69 kcal/mol	-4.30 kcal/mol	-3.20 kcal/mol	0.84 kcal/mol	0.08 kcal/mol	0.08 kcal/mol	0.08 kcal/mol	-4.20 kcal/mol	0.49 kcal/mol	1.49 kcal/mol	-3.45 kcal/mol	-5.59 kcal/mol	2.04 kcal/mol	
